# Experimental data taken from ChEMBL document CHEMBL5696442, “Discovery of type II inhibitors of TGFβ-activated kinase 1 (TAK1) and mitogen-activated protein kinase kinase kinase kinase 2 (MAP4K2)” (J Med Chem, 2015).
# Experiments:
# [1] = molecular target: Serine/threonine-protein kinase 24 (Homo sapiens) (UniProt Q9Y6E0); assay: Inhibition of MST3 ACT labeling site in human A-375 cells at 0.05 uM by KiNativ Profiling analysis relative to control; assay type: cell-based
# [2] = molecular target: Serine/threonine-protein kinase/endoribonuclease IRE1 (Homo sapiens) (UniProt O75460); assay: Inhibition of ERN1 (unknown origin) at 1 uM by Ambit Kinomescan binding assay relative to control; values are per cent of control
# [3] = molecular target: Mitogen-activated protein kinase kinase kinase 10 (Homo sapiens) (UniProt Q02779); assay: Inhibition of MLK2 (unknown origin) at 1 uM by Ambit Kinomescan binding assay relative to control; values are per cent of control
# [4] = tested on: Leucine-rich repeat serine/threonine-protein kinase 2 (Homo sapiens), Q5S007 [G2019S]; assay: Inhibition of LRRK2 G2019S mutant (unknown origin) at 1 uM by Ambit Kinomescan binding assay relative to control; values are per cent of control
# [5] = molecular target: Ephrin type-A receptor 3 (Homo sapiens) (UniProt P29320); assay: Inhibition of EPHA3 (unknown origin) at 10 uM by Ambit Kinomescan binding assay relative to control
# [6] = molecular target: Serine/threonine-protein kinase 38-like (Homo sapiens) (UniProt Q9Y2H1); assay: Inhibition of NDR2 (unknown origin) at 10 uM by Ambit Kinomescan binding assay relative to control
# [7] = molecular target: Dual specificity mitogen-activated protein kinase kinase 1 (Homo sapiens) (UniProt Q02750); assay: Inhibition of MAP2K1 Lys1 labeling site in human A-375 cells at 5 uM by KiNativ Profiling analysis relative to control; assay type: cell-based
# [8] = molecular target: T1, Mitogen-activated protein kinase kinase kinase kinase 2 (Homo sapiens) (UniProt Q12851); assay: Inhibition of MAP4K2 (GCK) Lys1 labeling site in human A-375 cells at 5 uM by KiNativ Profiling analysis relative to control; assay type: cell-based
# T1 sequence (whole entry): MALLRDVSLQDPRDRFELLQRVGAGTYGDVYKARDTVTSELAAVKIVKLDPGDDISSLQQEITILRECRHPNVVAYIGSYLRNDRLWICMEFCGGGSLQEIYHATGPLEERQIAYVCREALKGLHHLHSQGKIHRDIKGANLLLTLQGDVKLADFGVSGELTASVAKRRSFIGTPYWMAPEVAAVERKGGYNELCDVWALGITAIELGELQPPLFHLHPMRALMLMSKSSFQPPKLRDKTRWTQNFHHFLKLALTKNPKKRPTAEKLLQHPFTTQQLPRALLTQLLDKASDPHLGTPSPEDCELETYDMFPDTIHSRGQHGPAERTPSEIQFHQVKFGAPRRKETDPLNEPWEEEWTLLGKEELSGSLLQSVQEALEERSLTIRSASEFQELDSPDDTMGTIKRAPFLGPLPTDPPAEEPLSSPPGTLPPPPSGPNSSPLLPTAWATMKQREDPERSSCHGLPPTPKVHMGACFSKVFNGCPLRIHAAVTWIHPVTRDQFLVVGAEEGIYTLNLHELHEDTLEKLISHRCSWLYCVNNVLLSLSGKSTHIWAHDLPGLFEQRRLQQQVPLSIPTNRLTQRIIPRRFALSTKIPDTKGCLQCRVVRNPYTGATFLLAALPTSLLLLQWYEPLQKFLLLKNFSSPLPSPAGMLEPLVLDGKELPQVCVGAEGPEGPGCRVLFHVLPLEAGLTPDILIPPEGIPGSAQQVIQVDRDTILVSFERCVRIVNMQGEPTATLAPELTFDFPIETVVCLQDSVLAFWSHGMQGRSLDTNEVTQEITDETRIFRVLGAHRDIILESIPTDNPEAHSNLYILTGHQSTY
# [9] = molecular target: Serine/threonine-protein kinase ATR (Homo sapiens) (UniProt Q13535); assay: Inhibition of ATR ATP labeling site in human Huh-7 cells at 10 uM by KiNativ Profiling analysis relative to control; assay type: cell-based
# [10] = molecular target: Serine/threonine-protein kinase 16 (Homo sapiens) (UniProt O75716); assay: Inhibition of MPSK1 K2 labeling site in human Huh-7 cells at 10 uM by KiNativ Profiling analysis relative to control; assay type: cell-based
# [11] = molecular target: Mitogen-activated protein kinase 14 (Homo sapiens, UniProt Q16539); assay: Inhibition of p38alpha K2 labeling site in human Huh-7 cells at 1 uM by KiNativ Profiling analysis relative to control; assay type: cell-based
# [12] = molecular target: DNA-dependent protein kinase catalytic subunit (Homo sapiens) (UniProt P78527); assay: Inhibition of PRKDC ATP labeling site harbouring KGGSWIQEINVAEK in human Huh-7 cells at 1 uM by KiNativ Profiling analysis relative to control; assay type: cell-based
# [13] = molecular target: T2, Aurora kinase A (Homo sapiens) (UniProt O14965); assay: Inhibition of AurA ATP labeling site in human Huh-7 cell lysate at 1 uM by KiNativ Profiling analysis relative to control; assay type: subcellular
# T2 sequence (whole entry): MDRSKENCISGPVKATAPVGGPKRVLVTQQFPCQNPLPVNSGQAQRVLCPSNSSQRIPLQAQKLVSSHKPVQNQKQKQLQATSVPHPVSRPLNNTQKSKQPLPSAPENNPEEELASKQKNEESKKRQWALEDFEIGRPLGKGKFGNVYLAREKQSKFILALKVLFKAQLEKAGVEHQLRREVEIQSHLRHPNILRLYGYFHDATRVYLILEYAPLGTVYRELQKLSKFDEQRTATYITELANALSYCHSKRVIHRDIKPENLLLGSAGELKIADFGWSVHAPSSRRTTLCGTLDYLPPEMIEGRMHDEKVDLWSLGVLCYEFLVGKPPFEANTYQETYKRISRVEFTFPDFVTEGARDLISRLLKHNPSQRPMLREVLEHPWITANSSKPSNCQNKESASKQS
# [14] = molecular target: Interleukin-1 receptor-associated kinase 1 (Homo sapiens) (UniProt P51617); assay: Inhibition of IRAK1 Lys2 labeling site in human Huh-7 cell lysate at 1 uM by KiNativ Profiling analysis relative to control; assay type: subcellular
# [15] = molecular target: T3, Dual specificity mitogen-activated protein kinase kinase 4 (Homo sapiens) (UniProt P45985); assay: Inhibition of MAP2K4 ACT labeling site in human Huh-7 cell lysate at 1 uM by KiNativ Profiling analysis relative to control; assay type: subcellular
# T3 sequence (whole entry): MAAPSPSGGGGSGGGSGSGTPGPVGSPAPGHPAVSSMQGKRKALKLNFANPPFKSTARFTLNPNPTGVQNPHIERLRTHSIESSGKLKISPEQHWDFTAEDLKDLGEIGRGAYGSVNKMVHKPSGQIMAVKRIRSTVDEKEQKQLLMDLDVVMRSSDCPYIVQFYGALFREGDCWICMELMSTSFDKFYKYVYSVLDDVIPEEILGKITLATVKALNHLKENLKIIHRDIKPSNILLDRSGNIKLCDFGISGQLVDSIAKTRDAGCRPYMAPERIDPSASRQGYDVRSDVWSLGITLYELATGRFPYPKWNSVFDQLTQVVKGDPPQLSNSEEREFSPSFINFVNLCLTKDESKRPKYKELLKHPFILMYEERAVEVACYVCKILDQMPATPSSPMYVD
# Dual specificity mitogen-activated protein kinase kinase 1 (Homo sapiens), sequence (Q02750 whole entry): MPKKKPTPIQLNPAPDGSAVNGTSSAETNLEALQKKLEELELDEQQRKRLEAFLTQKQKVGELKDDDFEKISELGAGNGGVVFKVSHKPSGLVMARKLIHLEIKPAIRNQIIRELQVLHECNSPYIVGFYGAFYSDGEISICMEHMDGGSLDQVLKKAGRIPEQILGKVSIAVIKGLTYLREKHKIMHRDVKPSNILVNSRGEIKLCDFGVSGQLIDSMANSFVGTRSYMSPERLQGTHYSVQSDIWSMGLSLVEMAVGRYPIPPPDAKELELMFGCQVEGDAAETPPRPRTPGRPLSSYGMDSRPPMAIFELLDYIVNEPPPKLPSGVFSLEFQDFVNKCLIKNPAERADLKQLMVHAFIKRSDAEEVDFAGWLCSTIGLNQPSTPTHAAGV
# Interleukin-1 receptor-associated kinase 1 (Homo sapiens), sequence (P51617 whole entry, looked up): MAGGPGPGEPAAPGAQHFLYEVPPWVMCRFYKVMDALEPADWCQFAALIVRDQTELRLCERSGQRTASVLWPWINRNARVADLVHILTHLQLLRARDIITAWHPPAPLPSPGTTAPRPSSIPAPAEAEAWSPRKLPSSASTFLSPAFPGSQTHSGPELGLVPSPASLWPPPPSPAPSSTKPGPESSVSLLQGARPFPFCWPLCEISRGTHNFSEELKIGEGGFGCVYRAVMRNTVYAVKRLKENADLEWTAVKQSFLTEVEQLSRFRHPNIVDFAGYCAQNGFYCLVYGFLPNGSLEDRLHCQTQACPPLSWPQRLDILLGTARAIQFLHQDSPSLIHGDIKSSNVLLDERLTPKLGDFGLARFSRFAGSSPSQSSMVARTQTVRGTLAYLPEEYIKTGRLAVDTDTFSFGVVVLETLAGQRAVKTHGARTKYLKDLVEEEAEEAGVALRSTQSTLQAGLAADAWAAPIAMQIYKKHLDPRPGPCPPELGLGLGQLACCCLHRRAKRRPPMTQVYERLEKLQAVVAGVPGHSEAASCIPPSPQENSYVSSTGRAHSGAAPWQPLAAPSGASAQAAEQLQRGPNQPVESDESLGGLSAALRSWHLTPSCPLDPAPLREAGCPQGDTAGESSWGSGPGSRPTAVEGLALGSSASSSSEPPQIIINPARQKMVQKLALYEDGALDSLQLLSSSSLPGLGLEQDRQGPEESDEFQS
# Mitogen-activated protein kinase 14, sequence (Q16539 whole entry): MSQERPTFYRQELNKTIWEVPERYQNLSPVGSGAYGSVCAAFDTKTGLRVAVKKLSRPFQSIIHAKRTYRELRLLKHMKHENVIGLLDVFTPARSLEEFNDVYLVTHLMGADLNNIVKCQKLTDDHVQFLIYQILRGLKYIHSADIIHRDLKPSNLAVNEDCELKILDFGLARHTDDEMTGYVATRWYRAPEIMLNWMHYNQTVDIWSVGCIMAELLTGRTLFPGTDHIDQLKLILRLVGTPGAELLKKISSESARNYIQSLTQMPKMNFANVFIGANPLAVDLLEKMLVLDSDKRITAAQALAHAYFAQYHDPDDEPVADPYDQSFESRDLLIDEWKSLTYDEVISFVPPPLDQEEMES
# Mitogen-activated protein kinase kinase kinase 10 (Homo sapiens), sequence (Q02779 whole entry, looked up): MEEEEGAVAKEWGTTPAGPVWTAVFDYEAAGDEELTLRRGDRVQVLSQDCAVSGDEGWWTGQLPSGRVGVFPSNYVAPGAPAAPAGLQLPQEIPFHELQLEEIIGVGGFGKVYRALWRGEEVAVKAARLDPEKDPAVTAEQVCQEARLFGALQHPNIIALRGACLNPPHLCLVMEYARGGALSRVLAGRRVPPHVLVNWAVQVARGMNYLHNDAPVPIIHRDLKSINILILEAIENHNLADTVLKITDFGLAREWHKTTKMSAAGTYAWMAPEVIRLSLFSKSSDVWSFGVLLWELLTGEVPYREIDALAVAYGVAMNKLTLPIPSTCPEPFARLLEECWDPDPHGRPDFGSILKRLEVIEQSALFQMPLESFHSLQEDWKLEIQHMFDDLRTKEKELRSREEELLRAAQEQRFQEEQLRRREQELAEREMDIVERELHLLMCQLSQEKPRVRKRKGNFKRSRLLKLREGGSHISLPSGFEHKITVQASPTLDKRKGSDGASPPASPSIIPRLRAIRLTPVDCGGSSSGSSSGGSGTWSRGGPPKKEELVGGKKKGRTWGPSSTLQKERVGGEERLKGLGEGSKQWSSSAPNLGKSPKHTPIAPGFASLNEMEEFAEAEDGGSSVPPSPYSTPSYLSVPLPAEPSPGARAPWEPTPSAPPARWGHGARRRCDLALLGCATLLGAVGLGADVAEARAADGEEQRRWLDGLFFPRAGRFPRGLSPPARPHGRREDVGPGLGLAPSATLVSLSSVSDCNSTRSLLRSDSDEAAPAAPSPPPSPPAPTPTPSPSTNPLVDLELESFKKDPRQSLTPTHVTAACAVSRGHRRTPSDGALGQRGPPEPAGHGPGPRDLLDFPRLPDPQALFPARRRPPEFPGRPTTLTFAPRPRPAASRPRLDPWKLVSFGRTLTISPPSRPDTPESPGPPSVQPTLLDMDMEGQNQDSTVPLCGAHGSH
# Serine/threonine-protein kinase 16 (Homo sapiens), sequence (O75716 whole entry): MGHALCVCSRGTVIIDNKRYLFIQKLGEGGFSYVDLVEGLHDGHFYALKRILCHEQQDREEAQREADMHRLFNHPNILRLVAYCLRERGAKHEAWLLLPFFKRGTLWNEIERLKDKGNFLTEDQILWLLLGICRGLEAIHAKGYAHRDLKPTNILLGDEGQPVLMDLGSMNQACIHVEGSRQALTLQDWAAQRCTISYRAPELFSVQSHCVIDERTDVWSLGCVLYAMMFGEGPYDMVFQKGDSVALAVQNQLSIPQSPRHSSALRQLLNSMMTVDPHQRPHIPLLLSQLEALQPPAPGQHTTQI
# Serine/threonine-protein kinase 38-like (Homo sapiens), sequence (Q9Y2H1 2-464 limits assumed): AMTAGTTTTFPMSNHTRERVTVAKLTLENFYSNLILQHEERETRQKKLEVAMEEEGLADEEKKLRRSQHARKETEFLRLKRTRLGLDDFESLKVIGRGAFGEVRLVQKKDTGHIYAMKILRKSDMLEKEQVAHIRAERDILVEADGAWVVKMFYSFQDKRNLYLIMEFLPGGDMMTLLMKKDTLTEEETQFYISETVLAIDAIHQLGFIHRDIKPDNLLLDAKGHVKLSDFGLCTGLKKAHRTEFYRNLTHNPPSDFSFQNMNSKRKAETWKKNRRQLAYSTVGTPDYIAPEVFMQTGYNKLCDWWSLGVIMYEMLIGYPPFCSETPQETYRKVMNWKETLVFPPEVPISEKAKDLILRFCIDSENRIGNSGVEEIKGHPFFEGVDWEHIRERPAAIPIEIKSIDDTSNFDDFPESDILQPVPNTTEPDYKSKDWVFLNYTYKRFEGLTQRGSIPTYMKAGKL
# Serine/threonine-protein kinase/endoribonuclease IRE1 (Homo sapiens), sequence (O75460 19-977 limits assumed): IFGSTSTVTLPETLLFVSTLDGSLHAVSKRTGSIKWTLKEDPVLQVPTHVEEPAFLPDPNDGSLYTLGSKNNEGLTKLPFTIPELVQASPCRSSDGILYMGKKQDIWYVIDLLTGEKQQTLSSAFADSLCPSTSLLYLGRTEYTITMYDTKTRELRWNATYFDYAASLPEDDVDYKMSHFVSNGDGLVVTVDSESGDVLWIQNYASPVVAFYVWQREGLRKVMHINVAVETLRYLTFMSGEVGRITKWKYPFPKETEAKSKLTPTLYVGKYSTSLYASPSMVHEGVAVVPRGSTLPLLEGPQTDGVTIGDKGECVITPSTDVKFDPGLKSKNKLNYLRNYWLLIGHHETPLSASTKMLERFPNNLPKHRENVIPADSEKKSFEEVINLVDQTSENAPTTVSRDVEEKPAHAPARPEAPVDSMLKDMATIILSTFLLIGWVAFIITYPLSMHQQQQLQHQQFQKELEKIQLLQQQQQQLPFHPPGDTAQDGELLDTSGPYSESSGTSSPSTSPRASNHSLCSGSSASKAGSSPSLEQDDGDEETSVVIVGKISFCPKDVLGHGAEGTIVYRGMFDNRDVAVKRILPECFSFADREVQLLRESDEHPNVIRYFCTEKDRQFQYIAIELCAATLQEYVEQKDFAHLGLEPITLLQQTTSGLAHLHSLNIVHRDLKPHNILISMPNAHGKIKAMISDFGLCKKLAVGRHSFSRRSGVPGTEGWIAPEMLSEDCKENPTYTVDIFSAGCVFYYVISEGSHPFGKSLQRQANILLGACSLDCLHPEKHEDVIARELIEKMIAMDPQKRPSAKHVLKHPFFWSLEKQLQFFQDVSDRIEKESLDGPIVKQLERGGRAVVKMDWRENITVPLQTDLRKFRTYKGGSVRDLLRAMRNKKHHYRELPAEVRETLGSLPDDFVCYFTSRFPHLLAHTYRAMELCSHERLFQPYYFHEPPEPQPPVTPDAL
# Serine/threonine-protein kinase 24 (Homo sapiens), sequence (Q9Y6E0 whole entry, looked up): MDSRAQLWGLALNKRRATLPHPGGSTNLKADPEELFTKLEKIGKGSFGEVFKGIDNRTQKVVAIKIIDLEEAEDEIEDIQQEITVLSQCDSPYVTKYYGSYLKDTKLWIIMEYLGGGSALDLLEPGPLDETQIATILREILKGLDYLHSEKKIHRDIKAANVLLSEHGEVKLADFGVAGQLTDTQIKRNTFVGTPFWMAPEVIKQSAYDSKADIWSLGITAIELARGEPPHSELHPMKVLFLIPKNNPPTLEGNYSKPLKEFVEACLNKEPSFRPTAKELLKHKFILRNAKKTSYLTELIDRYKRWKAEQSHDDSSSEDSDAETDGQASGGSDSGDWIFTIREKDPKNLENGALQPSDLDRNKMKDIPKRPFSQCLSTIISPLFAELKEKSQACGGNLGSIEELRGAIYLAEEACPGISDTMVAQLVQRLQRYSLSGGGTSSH
structure (smiles),measurement,setting,value
CCN1CCN(Cc2ccc(NC(=O)c3ccc(C)c(/C=C/c4cnc5[nH]ccc5c4OC)c3)cc2C(F)(F)F)CC1,inhibition,[1],13.5%
same,residual activity,[2],100%
same,residual activity,[3],53%
same,residual activity,[4],71%
CCN1CCN(Cc2ccc(NC(=O)c3ccc(C)c(Oc4ccnc5[nH]ccc45)c3)cc2C(F)(F)F)CC1,inhibition,[5],3.4%
same,inhibition,[6],6.8%
same,inhibition,[7],1.3%
same,inhibition,[8],> 99.5%
same,inhibition,[9],19.8%
same,inhibition,[10],19.2%
same,inhibition,[11],7.1%
same,inhibition,[12],0.9%
CNc1cc(Oc2cc(C(=O)Nc3cc(N4CCN(C)CC4)cc(C(F)(F)F)c3)ccc2C)ncn1,inhibition,[13],2.5%
same,inhibition,[14],-6.9%
same,inhibition,[15],-2.8%
